These results are taken from ChEMBL document CHEMBL1817560, “Selectivity of kinase inhibitor fragments” (J Med Chem, 2011).

A word on the inhibition: it is how much of the control response was suppressed. Low values mean a response near the control, high ones a response far below the control.

SMILES strings stand for the structures.

Assay [1] deals with T1, Mitogen-activated protein kinase kinase kinase 5 (Homo sapiens) (UniProt Q99683).
T1 sequence (whole entry): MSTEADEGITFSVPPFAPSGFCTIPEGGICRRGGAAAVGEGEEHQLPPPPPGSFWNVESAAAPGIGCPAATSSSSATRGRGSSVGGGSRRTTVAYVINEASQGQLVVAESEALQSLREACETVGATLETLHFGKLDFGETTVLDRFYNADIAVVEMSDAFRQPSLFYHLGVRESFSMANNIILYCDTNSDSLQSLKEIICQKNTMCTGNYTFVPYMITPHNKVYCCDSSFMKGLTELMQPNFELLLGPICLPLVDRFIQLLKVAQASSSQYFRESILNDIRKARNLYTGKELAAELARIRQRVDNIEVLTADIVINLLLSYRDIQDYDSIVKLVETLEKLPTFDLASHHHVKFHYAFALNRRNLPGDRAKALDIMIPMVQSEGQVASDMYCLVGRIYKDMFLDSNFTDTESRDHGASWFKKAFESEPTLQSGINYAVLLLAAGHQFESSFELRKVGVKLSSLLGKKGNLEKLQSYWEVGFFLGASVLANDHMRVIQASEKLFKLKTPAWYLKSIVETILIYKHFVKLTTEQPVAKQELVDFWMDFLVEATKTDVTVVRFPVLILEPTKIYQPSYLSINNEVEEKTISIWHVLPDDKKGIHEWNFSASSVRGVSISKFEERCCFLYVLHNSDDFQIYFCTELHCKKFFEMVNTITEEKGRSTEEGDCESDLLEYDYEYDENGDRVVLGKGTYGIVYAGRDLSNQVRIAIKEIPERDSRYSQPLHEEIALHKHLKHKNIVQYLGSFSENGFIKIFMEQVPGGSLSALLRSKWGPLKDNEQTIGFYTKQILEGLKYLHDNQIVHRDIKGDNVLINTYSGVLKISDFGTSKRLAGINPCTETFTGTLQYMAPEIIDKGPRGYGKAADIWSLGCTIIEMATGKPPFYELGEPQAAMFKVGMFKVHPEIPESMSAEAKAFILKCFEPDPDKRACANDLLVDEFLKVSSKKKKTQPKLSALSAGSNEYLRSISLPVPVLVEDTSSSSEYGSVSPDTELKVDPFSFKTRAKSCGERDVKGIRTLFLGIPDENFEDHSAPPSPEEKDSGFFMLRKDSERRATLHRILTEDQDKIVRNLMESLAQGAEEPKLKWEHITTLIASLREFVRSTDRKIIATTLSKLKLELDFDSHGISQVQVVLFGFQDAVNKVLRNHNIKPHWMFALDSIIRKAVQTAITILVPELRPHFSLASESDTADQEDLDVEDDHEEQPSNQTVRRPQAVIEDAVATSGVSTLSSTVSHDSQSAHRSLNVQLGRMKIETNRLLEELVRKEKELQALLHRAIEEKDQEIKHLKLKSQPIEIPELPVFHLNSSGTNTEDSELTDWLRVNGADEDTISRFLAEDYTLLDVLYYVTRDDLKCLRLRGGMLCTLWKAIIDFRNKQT
Briefly: Inhibition of ASK1 expressed in Escherichia coli or baculovirus-infected insect cells at 667 uM by IMAP assay.

Assay [2] concerns the target Insulin-like growth factor 1 receptor (Homo sapiens) (UniProt P08069). The experiment in a line: Inhibition of IGF1R expressed in Escherichia coli or baculovirus-infected insect cells at 400 uM by TR-FRET assay.
Assay [3] concerns the target Phosphatidylinositol 4,5-bisphosphate 3-kinase catalytic subunit alpha isoform (Homo sapiens) (UniProt P42336). The experiment in a line: Inhibition of PI3Kalpha expressed in Escherichia coli or baculovirus-infected insect cells using gamma-[33P]ATP at 400 uM by scintillation proximity assay. In general terms: Scintillation proximity formats need no separation of bound from free tracer.

The target in assay [4] is Serine/threonine-protein kinase pim-1 (Homo sapiens) (UniProt P11309). Briefly: Inhibition of PIM1 expressed in Escherichia coli or baculovirus-infected insect cells at 400 uM by IMAP assay.
Chain of Serine/threonine-protein kinase pim-1 (Homo sapiens) (P11309 whole entry, looked up): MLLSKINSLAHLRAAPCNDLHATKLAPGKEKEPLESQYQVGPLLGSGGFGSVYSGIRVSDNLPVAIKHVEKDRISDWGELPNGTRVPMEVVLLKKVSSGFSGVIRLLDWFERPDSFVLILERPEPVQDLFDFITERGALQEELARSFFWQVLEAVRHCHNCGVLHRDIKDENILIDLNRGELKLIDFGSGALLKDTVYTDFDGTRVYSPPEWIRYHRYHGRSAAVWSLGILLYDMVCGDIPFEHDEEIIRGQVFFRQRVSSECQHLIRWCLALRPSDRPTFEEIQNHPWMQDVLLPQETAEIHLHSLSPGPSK
Assay [5] addresses Rho-associated protein kinase 1 (Homo sapiens) (UniProt Q13464). Briefly: Inhibition of ROCK1 expressed in Escherichia coli or baculovirus-infected insect cells at 400 uM by IMAP assay.
In assay [6] the target is T2, Serine/threonine-protein kinase Sgk1 (Homo sapiens) (UniProt O00141).
T2 sequence (whole entry): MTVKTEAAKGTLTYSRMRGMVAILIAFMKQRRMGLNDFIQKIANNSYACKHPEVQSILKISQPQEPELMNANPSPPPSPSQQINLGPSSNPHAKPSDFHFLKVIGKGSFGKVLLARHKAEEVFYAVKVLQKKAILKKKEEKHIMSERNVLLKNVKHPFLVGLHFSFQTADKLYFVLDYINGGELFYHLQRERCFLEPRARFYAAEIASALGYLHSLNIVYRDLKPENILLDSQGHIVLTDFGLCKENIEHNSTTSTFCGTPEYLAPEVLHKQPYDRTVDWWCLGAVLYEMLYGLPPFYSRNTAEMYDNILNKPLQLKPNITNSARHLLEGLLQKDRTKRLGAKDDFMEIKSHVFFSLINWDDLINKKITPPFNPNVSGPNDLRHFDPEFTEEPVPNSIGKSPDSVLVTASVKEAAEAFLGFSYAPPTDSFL
The experiment in a line: Inhibition of SGK1 expressed in Escherichia coli or baculovirus-infected insect cells at 400 uM by IMAP assay.

Assay [7] has as its target Tyrosine-protein kinase SYK (Homo sapiens, UniProt P43405). The experiment in a line: Inhibition of SYK expressed in Escherichia coli or baculovirus-infected insect cells at 667 uM by TR-FRET assay. A general note: Time-resolved FRET reads energy transfer from a long-lived donor to a nearby acceptor.

Chain of Phosphatidylinositol 4,5-bisphosphate 3-kinase catalytic subunit alpha isoform (Homo sapiens) (P42336 whole entry, canonical isoform): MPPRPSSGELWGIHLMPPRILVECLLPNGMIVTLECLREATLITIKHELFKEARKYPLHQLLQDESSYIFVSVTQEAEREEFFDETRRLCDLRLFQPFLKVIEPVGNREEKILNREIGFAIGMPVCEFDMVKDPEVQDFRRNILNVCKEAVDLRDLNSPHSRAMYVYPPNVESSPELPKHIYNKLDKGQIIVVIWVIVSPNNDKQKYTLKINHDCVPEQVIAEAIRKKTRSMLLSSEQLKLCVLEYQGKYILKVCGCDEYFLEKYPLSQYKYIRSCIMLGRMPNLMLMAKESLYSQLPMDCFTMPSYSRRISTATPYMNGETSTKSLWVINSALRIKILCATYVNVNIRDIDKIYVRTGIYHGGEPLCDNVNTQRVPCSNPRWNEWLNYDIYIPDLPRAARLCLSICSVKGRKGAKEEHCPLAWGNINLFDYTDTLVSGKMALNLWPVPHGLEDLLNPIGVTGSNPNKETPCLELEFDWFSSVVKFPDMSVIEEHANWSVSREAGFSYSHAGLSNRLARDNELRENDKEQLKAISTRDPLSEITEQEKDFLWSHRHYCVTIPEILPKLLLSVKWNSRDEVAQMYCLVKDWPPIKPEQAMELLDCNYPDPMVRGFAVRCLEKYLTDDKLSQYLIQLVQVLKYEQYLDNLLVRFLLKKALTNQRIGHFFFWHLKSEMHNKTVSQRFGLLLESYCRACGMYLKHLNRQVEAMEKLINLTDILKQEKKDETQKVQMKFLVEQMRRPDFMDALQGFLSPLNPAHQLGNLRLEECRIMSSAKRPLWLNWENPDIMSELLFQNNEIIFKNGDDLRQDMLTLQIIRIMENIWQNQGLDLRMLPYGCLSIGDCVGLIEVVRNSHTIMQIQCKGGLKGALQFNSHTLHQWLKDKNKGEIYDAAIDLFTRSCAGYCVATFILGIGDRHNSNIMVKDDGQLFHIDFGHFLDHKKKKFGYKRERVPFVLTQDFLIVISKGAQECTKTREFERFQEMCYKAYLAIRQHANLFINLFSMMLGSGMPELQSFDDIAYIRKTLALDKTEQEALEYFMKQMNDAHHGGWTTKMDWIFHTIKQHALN
Chain of Insulin-like growth factor 1 receptor (Homo sapiens) (P08069 31-736 limits assumed): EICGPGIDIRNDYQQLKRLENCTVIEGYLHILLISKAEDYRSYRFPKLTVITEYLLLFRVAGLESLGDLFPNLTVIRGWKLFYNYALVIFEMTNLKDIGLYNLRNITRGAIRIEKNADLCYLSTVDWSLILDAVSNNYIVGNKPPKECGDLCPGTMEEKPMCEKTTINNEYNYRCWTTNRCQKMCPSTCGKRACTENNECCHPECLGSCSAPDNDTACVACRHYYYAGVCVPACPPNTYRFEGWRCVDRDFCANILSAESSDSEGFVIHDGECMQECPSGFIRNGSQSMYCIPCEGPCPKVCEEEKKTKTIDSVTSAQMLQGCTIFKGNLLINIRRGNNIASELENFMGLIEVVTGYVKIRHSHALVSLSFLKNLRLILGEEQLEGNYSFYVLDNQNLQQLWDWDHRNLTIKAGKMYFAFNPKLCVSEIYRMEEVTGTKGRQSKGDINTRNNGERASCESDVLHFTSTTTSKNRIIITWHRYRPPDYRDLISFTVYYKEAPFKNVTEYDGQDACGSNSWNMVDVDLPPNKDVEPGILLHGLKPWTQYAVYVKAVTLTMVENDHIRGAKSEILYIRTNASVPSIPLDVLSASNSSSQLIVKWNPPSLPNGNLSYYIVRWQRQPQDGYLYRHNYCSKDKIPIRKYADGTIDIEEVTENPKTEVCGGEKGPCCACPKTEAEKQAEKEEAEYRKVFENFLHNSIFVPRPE
Chain of Insulin-like growth factor 1 receptor (Homo sapiens) (P08069 741-1367 limits assumed): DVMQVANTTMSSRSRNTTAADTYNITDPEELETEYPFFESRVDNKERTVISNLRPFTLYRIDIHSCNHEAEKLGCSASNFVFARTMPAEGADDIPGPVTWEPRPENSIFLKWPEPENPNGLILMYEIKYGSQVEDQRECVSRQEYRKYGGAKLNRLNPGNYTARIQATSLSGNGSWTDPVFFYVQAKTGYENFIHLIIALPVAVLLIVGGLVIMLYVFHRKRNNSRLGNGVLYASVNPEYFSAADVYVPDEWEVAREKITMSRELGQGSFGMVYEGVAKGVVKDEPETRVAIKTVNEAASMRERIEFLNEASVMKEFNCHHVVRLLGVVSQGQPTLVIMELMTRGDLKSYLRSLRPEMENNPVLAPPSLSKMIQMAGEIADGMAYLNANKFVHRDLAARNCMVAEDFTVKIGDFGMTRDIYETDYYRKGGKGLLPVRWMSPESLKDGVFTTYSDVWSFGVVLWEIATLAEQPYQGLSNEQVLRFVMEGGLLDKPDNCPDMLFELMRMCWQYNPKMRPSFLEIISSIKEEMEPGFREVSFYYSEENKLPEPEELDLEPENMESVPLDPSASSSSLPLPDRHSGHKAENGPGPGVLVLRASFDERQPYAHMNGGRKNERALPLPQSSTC
Chain of Rho-associated protein kinase 1 (Homo sapiens) (Q13464 2-1354 limits assumed): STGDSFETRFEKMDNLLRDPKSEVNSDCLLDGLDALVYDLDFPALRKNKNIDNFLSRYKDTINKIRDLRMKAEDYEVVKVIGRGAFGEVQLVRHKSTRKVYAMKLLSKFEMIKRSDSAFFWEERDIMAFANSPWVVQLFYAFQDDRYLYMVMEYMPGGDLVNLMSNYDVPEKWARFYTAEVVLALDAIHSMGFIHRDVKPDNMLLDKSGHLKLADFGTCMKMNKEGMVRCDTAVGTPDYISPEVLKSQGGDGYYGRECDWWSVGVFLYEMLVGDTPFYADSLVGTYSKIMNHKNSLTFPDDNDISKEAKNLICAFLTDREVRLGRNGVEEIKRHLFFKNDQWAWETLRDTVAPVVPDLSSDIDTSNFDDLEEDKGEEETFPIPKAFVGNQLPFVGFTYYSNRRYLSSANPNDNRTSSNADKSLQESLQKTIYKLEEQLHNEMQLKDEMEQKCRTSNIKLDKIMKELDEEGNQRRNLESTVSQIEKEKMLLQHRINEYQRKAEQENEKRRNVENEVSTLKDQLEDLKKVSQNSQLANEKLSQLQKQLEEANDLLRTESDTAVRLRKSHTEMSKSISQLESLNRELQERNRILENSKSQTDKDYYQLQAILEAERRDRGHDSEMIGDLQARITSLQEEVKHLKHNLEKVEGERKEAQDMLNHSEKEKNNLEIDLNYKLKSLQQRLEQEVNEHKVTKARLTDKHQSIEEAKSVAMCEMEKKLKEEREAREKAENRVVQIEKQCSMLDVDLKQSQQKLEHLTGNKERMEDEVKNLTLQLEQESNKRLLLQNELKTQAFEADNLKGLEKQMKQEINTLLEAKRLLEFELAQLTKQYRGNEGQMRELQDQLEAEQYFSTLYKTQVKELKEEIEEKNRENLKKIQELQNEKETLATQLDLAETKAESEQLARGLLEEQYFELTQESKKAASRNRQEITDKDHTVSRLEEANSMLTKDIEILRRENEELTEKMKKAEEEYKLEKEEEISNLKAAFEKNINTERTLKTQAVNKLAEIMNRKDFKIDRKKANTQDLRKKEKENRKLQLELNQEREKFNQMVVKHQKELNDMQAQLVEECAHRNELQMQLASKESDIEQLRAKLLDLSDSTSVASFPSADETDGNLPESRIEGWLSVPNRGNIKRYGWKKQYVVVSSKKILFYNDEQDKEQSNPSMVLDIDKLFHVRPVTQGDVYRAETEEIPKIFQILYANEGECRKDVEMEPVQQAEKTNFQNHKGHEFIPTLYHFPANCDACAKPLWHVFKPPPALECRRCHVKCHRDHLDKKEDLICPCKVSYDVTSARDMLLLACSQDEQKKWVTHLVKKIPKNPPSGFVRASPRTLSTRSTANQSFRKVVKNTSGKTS

As to `Nc1[nH]cnc2ncnc1-2`, the inhibition is 88% in assay [1]; 44% in assay [2]; 45% in assay [3]; 20% in assay [4]; 80% in assay [5]; 76% in assay [6]. This compound yielded an inhibition in assay [7] of 56%.

In the case of `c1n[nH]c2c1CCCC2`, the inhibition in assay [2] worked out at 15%; in assay [3], 24%; in assay [4], 5%; in assay [5], 25%; in assay [6], 27%; in assay [7] it was 26%.

Regarding `c1ccc2[nH]ncc2c1` [INDAZOLE], the inhibition in assay [1] amounted to 31%; in assay [2], 24%; in assay [3] it was 6%; in assay [4], 22%; in assay [5], 80%; in assay [6], 75%. In assay [7], this compound returned an inhibition of 21%.

With `O=C(Nc1ccccc1)Nc1ccccc1`, the inhibition came to 6% in assay [2]; 11% in assay [3]; 12% in assay [4]; 5% in assay [5]; 15% in assay [6]; 87% in assay [7].

For `Cc1ccc(C(=O)NC2CC2)cc1F`, the inhibition in assay [1] stood at 9%; in assay [3], 16%; in assay [4] it was 58%; in assay [5], 3%; in assay [6], 17%; in assay [7], 6%.

With `Cc1ccc(NC(=O)Nc2cc(C(C)(C)C)nn2-c2ccccc2)cc1`, the inhibition came out at 13% in assay [1]; 5% in assay [2]; 27% in assay [3]; 1% in assay [4]; 6% in assay [5]; 7% in assay [6]. The compound also yielded an inhibition in assay [7] of 3%.

For `c1ccc(Nc2ncccn2)cc1`, the inhibition in assay [1] was determined as 10%; in assay [2] it was 18%; in assay [3], 14%; in assay [4], 6%; in assay [5] it was 10%; in assay [6] it was 21%. The same compound gave an inhibition in assay [7] of 94%.

`c1ccc(-c2cnc3nccnn23)cc1`: the inhibition in assay [1] is 1%; in assay [2] it was 0%; in assay [3], 46%; in assay [4], 39%; in assay [5] it was 0%; in assay [6], 0%. In assay [7], this compound came in with an inhibition of 15%.

As to `Nc1ccc2ncc(-c3ccccc3)n2n1`, the inhibition in assay [1] is 77%; in assay [2] it was 92%; in assay [3], 86%; in assay [4], 89%; in assay [5] it was 93%; in assay [6], 90%. In assay [7], this compound yielded an inhibition of 86%.

As to `O=C(Nc1ccccc1)Nc1cccc(C(F)(F)F)c1`, the inhibition in assay [1] worked out at 0%; in assay [2], 1%; in assay [3], 10%; in assay [4], 10%; in assay [5], 8%; in assay [6], 8%. This compound also registered an inhibition in assay [7] of 0%.

In the case of `CC(C)(C)c1cc(NC(=O)Nc2ccccc2)no1`, the inhibition in assay [1] is 3%; in assay [2] it was 0%; in assay [3], 40%; in assay [4], 19%; in assay [5], 9%; in assay [6] it was 10%. Further, the inhibition in assay [7] came to 20%.

Consider `Cc1ccc(NC(=O)Nc2cccc(C(F)(F)F)c2)cc1`, for which the inhibition in assay [1] came out at 9%; in assay [2], 0%; in assay [3], 4%; in assay [4], 13%; in assay [5] it was 7%; in assay [6] it was 8%. The inhibition in assay [7] worked out at 0%.

As to `Nc1ncccc1OCc1ccccc1`, the inhibition in assay [1] was 39%; in assay [2], 20%; in assay [3], 59%; in assay [4], 54%; in assay [5], 64%; in assay [6], 52%. Moreover, the inhibition in assay [7] was determined as 51%.

On to `c1cnc2[nH]ccc2c1`, for which the inhibition in assay [2] came out at 23%; in assay [3] it was 16%; in assay [4] it was 6%; in assay [5] it was 76%; in assay [6], 62%; in assay [7], 27%.

As to `c1ccc(Nc2ccccc2)cc1`, the inhibition was determined as 2% in assay [1]; 0% in assay [2]; 20% in assay [3]; 17% in assay [4]; 0% in assay [5]; 3% in assay [6]. The compound further yielded an inhibition in assay [7] of 8%.

Regarding `Nc1n[nH]c2ncccc12`, the inhibition in assay [1] amounted to 52%; in assay [3] it was 29%; in assay [4], 21%; in assay [5] it was 46%; in assay [6] it was 63%; in assay [7], 36%.

In the case of `Nc1[nH]nc2ccccc12`, the inhibition is 80% in assay [1]; 47% in assay [2]; 22% in assay [3]; 21% in assay [4]; 65% in assay [5]; 97% in assay [6]. This compound also yielded an inhibition in assay [7] of 25%.
